Active and inactive are the calls of the source. No cut-off for these calls is given here.
Legend:
[1] = tested on: Radical scavenging activity; experiment: Antioxidant activity assessed as DPPH free radical scavenging activity at 20 ug/ml after 30 min by spectrophotometric analysis; assay type: functional
[2] = biological target: Lysosomal alpha-glucosidase (Rattus norvegicus) (UniProt Q6P7A9); experiment: Inhibition of rat intestinal alpha-glucosidase using para-nitrophenyl-alpha-D-glucopyranoside as substrate at 25 ug/ml incubated for 5 min prior to substrate addition measured after 5 min by spectrophotometric analysis
[3] = tested on: Radical scavenging activity; experiment: Antioxidant activity assessed as concentration required for 50% DPPH free radical scavenging activity after 30 min by spectrophotometric analysis; assay type: functional
Rattus norvegicus [4] = experiment: Antihyperglycemic activity in starch-induced post-parandial hyperglycemic Rattus norvegicus Wistar (rat) model assessed as decrease in plasma glucose level at 50 mg/kg, po administered via gastric intubation by glucose-oxidase test; assay type: functional, organism-based; design: dose 50 mg/kg; details: TDE = time-dependent effect
Rattus norvegicus [5] = experiment: Antihyperglycemic activity in starch-induced post-parandial hyperglycemic Rattus norvegicus Wistar (rat) model assessed as decrease in plasma AUC at 50 mg/kg, po administered via gastric intubation administered 15 min followed by starch challenge measured after 30 to 120 min by glucose-oxidase test; assay type: functional, organism-based; design: dose 50 mg/kg
Rattus norvegicus [6] = experiment: Antihyperglycemic activity in starch-induced post-parandial hyperglycemic Rattus norvegicus Wistar (rat) model assessed as decrease in plasma glucose level at 10 mg/kg, po administered via gastric intubation by glucose-oxidase test; assay type: functional, organism-based; design: dose 10 mg/kg; details: TDE = time-dependent effect
Rattus norvegicus [7] = experiment: Antihyperglycemic activity in starch-induced post-parandial hyperglycemic Rattus norvegicus Wistar (rat) model assessed as decrease in plasma AUC at 10 mg/kg, po administered via gastric intubation administered 15 min followed by starch challenge measured after 30 to 120 min by glucose-oxidase test; assay type: functional, organism-based; design: dose 10 mg/kg

Lysosomal alpha-glucosidase (Rattus norvegicus), sequence (Q6P7A9 whole entry): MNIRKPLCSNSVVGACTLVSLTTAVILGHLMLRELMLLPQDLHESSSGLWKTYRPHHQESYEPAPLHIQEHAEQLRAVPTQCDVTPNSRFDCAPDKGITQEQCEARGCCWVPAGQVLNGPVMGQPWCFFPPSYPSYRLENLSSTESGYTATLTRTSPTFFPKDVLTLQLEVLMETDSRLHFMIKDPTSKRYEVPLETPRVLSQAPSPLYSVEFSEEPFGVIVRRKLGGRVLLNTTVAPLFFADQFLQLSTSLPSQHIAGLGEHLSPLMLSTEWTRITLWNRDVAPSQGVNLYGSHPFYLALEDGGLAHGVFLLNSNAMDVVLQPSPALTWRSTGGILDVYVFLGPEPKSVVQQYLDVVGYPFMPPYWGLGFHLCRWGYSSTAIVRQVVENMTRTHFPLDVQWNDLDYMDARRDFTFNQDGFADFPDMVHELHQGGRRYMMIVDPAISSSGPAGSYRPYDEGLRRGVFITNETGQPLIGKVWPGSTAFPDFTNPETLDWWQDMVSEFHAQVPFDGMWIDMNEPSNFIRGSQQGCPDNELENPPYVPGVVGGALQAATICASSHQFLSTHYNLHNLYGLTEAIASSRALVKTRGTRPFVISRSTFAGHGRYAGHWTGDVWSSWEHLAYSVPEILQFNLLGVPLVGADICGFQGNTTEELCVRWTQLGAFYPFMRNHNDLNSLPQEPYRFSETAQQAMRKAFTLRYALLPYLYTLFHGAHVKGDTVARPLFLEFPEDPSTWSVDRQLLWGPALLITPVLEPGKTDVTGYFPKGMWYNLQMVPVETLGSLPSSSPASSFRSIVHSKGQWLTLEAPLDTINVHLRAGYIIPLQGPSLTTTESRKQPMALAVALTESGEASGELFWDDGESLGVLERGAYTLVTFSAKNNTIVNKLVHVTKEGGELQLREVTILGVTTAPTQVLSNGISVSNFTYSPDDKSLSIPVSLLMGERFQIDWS

| SMILES | Activity [1] [%] | inhibition [2] [%] | Activity [3] [µM] | further results |
| --- | --- | --- | --- | --- |
| COc1ccc(/C=C/C(=O)c2ccc3occc3c2O)c(OC)c1OC | 7.3 | 67.3 | – | – |
| COc1ccc(/C=C/C(=O)c2cc3ccoc3cc2O)cc1 | – | 48.9 | – | – |
| O=C(/C=C/c1ccc(O)c(O)c1)c1cc2ccoc2cc1O | 69.8 | 62.7 | 26.2 | – |
| O=C(/C=C/c1ccc(O)cc1)c1ccc2occc2c1O | 75.8 | 65.7 | 17.8 | – |
| COc1ccc(/C=C/C(=O)c2ccc3occc3c2O)cc1OC | – | 89.5 | – | Activity (Rattus norvegicus [4]): tde; Activity (Rattus norvegicus [5]): Active |
| Cc1c(C)c2c(c(C)c1O)CCC(C)(C(=O)O)O2 (stereo not given) | 99.5 | – | 4.8 | – |
| COc1cc(OC)c(OC)cc1/C=C/C(=O)c1cc2ccoc2cc1O | 17.1 | 68 | – | – |
| O=C(/C=C/c1ccccc1)c1ccc2occc2c1O | 7.57 | 20.8 | – | – |
| C[C@H]1O[C@H](O[C@H]2[C@H](O)[C@@H](O)[C@@H](O[C@H]3[C@H](O)[C@@H](O)C(O)O[C@@H]3CO)O[C@@H]2CO)[C@H](O)[C@@H](O)[C@@H]1N[C@H]1C=C(CO)[C@@H](O)[C@H](O)[C@H]1O (stereo not given in full) | – | – | – | Activity (Rattus norvegicus [6]): tde; Activity (Rattus norvegicus [7]): Active |
| O=C(/C=C/c1ccc(O)cc1)c1cc2ccoc2cc1O | 73.2 | 8.77 | 12 | – |
| O=C(/C=C/c1ccc(O)c(O)c1)c1ccc2occc2c1O | 67.9 | 61.5 | 29.7 | – |
| COc1ccc(/C=C/C(=O)c2ccc3occc3c2O)cc1 | – | 94.8 | – | – |
| O=C(/C=C/c1ccccc1)c1cc2ccoc2cc1O | 9.91 | 67.6 | – | – |
| COc1cc(/C=C/C(=O)c2ccc3occc3c2O)ccc1O | 54.2 | 45 | – | – |
| COc1ccc(/C=C/C(=O)c2cc3ccoc3cc2O)cc1OC | 8.78 | 89.3 | – | – |
| COc1cc(/C=C/C(=O)c2cc3ccoc3cc2O)ccc1O | 42.1 | 52.8 | – | – |

— ChEMBL document CHEMBL3046873, “Synthesis of antihyperglycemic, -glucosidase inhibitory, and DPPH free radical scavenging furanochalcones” (Med Chem Res, 2012)
